Test results reported in patent publication US5629285A, “Inhibitors of TNF-α secretion” (Immunex Corporation, priority 1996, dated 1997).

Legend:
[1] = test system: TNF-α secretion; assay: Inhibition of TNF-α release by anti-CD3 + PMA stimulated peripheral blood T-cells (ELISA); format: cell-based, human; design: key to TNF-α (pg/ml), 3 Hrs.: .dagger.: undetectable
Procedure: (§1) Human peripheral blood T-cells were purified from peripheral blood mononuclear cells by rosetting with 2-aminoethylisothiouronium bromide hydrobromide-treated sheep erythrocytes. After hypotonic lysis of sheep erythrocytes, monocytes were depleted by plastic adherence for one hour at 37° C. The peripheral […] T-cells were stimulated with anti-CD3 antibody (OKT3) which was immobilized on the culture wells at 10 μg/ml in PBS plus […] of the phorbol ester, PMA. Culture medium comprised RPMI 1640 medium containing 10% fetal bovine serum, 50 U/ml penicillin, and 50 μg/ml streptomycin. The stimulation was performed in the presence or absence of the inhibitor Compound 1 (200 μM), and TNF-α in the medium was assayed by ELISA.

[2] = test system: TNF-β secretion; assay: TNF-β production by anti-CD3 + PMA stimulated peripheral blood T-cells; format: cell-based, human; design: key to TNF-β (pg/ml), 3 Hrs.: .dagger.: undetectable
Procedure: [The source words this procedure for another target and reports this target under the same test.] as §1

[3] = test system: IFN-γ secretion; assay: IFN-γ production by anti-CD3 + PMA stimulated peripheral blood T-cells; format: cell-based, human
Procedure: [The source words this procedure for another target and reports this target under the same test.] as §1

[4] = test system: cell surface TNF-α; assay: Cell surface TNF-α on PMA + ionomycin-stimulated human T-cell clone PL-1 (TNFR:Fc staining, FACS); format: cell-based
Procedure: (§2) Detection of cell surface TNF-α was performed by staining with an Fc fusion protein consisting of an Fc portion of a human IgG1 molecule (IgGFc) coupled with an extracellular domain of TNF receptor (p80). Detection of cell surface ligands for 41BB and CD40 was performed by staining with analogous Fc fusion proteins consisting of IgGFc and extracellular domains of 41BB and CD40, respectively. […] TNFR:Fc and IL-4R:Fc fusion proteins are described in EP 0 464 533, incorporated herein by reference. The same general procedures used to construct the TNFR:Fc and IL-4R:Fc fusion molecules were utilized in the construction of the 41BB:Fc and CD40:Fc molecules. Fc fusion proteins bound to their respective cell-surface ligands were then detected with a biotinylated anti-human IgG1 followed by streptavidin-phycoerythrin. The intensity of staining was measured by a FACS (fluorescence activated cell sorting) scan flow cytometer.

[5] = test system: 41BBL; assay: Cell surface 41BBL on PMA + ionomycin-stimulated human T-cell clone PL-1 (41BB:Fc staining, FACS); format: cell-based
Procedure: as §2

[6] = test system: CD40L; assay: Cell surface CD40L on PMA + ionomycin-stimulated human T-cell clone PL-1 (CD40:Fc staining, FACS); format: cell-based
Procedure: as §2

[7] = test system: IL-4; assay: Cell surface IL-4 on PMA + ionomycin-stimulated human T-cell clone PL-1 (IL-4R:Fc staining, negative control); format: cell-based; conditions: + Compound 1 (10 without)
Procedure: as §2

[8] = test system: serum TNF-α; assay: In vivo inhibition of TACE: LPS-induced serum TNF levels, 500 μg compound s.c.; design: species or system Balb/c mice; conditions: for Serum TNF-α level: 500 μg s.c. with 400 μg LPS i.v., serum 2 hours after LPS, pooled from two mice, Saline/DMSO control 157
Procedure: Female Balb/c mice (18-20 g) were injected i.v. with 400 μg of LPS. Simultaneously, the mice were injected subcutaneously with 500 μg of Compound A or Compound 1 in 0.5 ml of saline containing 0.02% DMSO. Control mice received LPS intravenously and saline/DMSO subcutaneously. Two hours following the LPS injection, serum was obtained and pooled from two mice in each treatment group.
In a similar manner to the procedure described above, mice were injected i.v. with 400 μg LPS. Simultaneously, the mice were injected subcutaneously with 500 μg Compound 1 in 0.5 ml saline containing 0.02% DMSO. Two hours later, serum was obtained and pooled. TNF-α levels were determined by ELISA.

[9] = test system: serum TNF-α; assay: In vivo inhibition of TACE: LPS-induced serum TNF levels, 250 μg compound s.c.; design: species or system Balb/c mice; conditions: 2 hours; for serum TNF-α, mean optical density (OD) in the ELISA: 250 μg s.c. in saline/DMSO with 450 μg LPS i.v., three mice, LPS + Saline + DMSO 0.268 ± 0.040, background OD 0.162±0.003; for effect on serum TNF-α levels in LPS-stimulated mice: 250 μg s.c., 450 μg LPS i.v.
Procedure: Female Balb/c mice (18-20 g) were injected i.v. with 450 μg of LPS. Simultaneously, the mice were injected subcutaneously with 250 μg of Compound A or Compound 1 in 0.25 ml of saline containing 0.02% DMSO. Control mice received LPS intravenously and saline/DMSO subcutaneously. Two hours following the LPS injection, serum was obtained from three mice in each treatment group. TNF-α levels were determined by ELISA. The results are expressed as the mean optical density (OD) obtained in the ELISA from each treatment group, and are shown in Table V. The background OD of the control sample was 0.162±0.003.

[10] = target: purified TACE (Homo sapiens, UniProt P78536); assay: Serum stability in normal mouse serum, read out as inhibitory efficacy against purified TACE; format: in vitro ADME; conditions: 50 μM in normal mouse serum, 37° C., after 40 minutes
purified TACE, sequence (P78536 215-824): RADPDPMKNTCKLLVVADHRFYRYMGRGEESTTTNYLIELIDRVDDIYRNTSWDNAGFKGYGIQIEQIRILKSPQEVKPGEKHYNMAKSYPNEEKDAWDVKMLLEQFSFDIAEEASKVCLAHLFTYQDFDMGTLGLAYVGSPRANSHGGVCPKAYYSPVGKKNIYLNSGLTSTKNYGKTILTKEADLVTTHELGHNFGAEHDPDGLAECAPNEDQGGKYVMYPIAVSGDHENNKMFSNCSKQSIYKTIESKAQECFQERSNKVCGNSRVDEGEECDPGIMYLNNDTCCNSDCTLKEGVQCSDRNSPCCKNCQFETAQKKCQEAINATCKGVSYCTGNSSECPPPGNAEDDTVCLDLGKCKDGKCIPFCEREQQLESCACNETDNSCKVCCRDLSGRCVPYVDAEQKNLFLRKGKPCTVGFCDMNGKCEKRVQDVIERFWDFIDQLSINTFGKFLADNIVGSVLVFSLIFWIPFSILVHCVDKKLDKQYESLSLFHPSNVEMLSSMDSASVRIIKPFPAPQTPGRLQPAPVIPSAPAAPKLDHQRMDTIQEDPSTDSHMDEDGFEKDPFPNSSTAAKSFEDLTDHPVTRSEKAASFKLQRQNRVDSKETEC
Procedure: Each of Compound 1 and Compound A was diluted to 50 μM in normal mouse serum and incubated at 37° C. At various times, aliquots were withdrawn, diluted 100-fold into ice-cold PBS, and tested for inhibitory, efficacy against purified TACE.

[11] = with Compound 1 200 μM, 24 Hrs.
[12] = with Compound 1 200 μM, 48 Hrs.

CC(C)CC(CC(=O)NO)C(=O)N[C@@H](Cc1ccc2ccccc2c1)C(=O)N[C@@H](C)C(=O)NCCN (stereo partly drawn) [Compound 1, N-{D,L-2-(hydroxyaminocarbonyl)methyl-4-methylpentanoyl}-L-3-(2'-naphthyl) alanyl-L-alanine, 2-aminoethyl amide]
inhibition of TNF-α release ([1]; 200 μM, 48 hours): 63% | TNF-α in the medium ([1]; 200 μM, after 3 hours, 100 pg/ml without compound): no detectable | TNF-α (pg/ml), 3 Hrs. ([1]; with Compound 1 200 μM, medium of stimulated peripheral blood T cells, 3 Hrs.): .dagger. | TNF-α (pg/ml), 24 Hrs. ([1]; with Compound 1 200 μM, medium of stimulated peripheral blood T cells, 24 Hrs.): 100 pg/mL | TNF-α (pg/ml), 48 Hrs. ([1]; with Compound 1 200 μM, medium of stimulated peripheral blood T cells, 48 Hrs.): 300 pg/mL | inhibitory effect on the release of TNF-β ([2]; 200 μM, 24 and 48 hours): no inhibitory effect | TNF-β (pg/ml), 3 Hrs. ([2]; with Compound 1 200 μM, 3 Hrs.): .dagger. | TNF-β (pg/ml), 24 Hrs. [2, 11]: 160 pg/mL | TNF-β (pg/ml), 48 Hrs. [2, 12]: 1050 pg/mL | inhibitory effect on the release of interferon-γ ([3]; 200 μM, 24 and 48 hours): no inhibitory effect | IFN-γ (ELISA OD), 3 Hrs. ([3]; with Compound 1 200 μM, 3 Hrs.): 0.2 ELISA OD | IFN-γ (ELISA OD), 24 Hrs. [3, 11]: 0.9 ELISA OD | IFN-γ (ELISA OD), 48 Hrs. [3, 12]: 1.08 ELISA OD | cell surface TNF-α (MFI) ([4]; 4h after stimulation, + Compound 1 (83 without)): 3040 MFI, arbitrary units | cell surface TNF-α (MFI) ([4]; 18h after stimulation, + Compound 1 (7 without)): 616 MFI, arbitrary units | increase in TNFR:Fc binding ([4]; 18 hours of stimulation, presence vs absence of Compound 1): 100 fold | cell surface 41BBL (MFI) ([5]; 4h after stimulation, + Compound 1 (428 without)): 344 MFI, arbitrary units | cell surface 41BBL (MFI) ([5]; 18h after stimulation, + Compound 1 (5 without)): 9 MFI, arbitrary units | enhancement of 41BB:Fc binding ([5]; 18 hours of stimulation): approximately 2 fold | increase on 41BB:Fc binding ([5]; four hours of stimulation): no increase | cell surface CD40L (MFI) ([6]; 4h after stimulation, + Compound 1 (107 without)): 107 MFI, arbitrary units | cell surface CD40L (MFI) ([6]; 18h after stimulation, + Compound 1 (19 without)): 46 MFI, arbitrary units | enhancement of CD40:Fc binding ([6]; 18 hours of stimulation): approximately 2 fold | increase on CD40:Fc binding ([6]; four hours of stimulation): no increase | cell surface IL-4 (MFI) ([7]; 4h after stimulation): 10 MFI, arbitrary units | cell surface IL-4 (MFI) ([7]; 18h after stimulation): 10 MFI, arbitrary units | Serum TNF-α level [8]: undetectable | reduction of serum TNF-α levels in a murine model of LPS-induced sepsis syndrome ([8]; 25 mg/kg, from Tables III and IV): at least 80% | LPS-induced serum TNF level ([8]; Experiment No. 1, 500 μg s.c., 400 μg LPS i.v., 2 hours, LPS only 1696, LPS + Saline 1268): 301 pg/mL | LPS-induced serum TNF level ([8]; Experiment No. 2, 500 μg s.c., 400 μg LPS i.v., 2 hours, LPS only 2527, LPS + Saline 1768): 269 pg/mL | LPS-induced serum TNF level ([8]; Experiment No. 3, 500 μg s.c., 400 μg LPS i.v., 2 hours, LPS only 1833, LPS + Saline 1732): 281 pg/mL | reduction of serum TNF-α levels as compared to LPS only ([8]; experiment 1, 500 μg s.c.): 82% | reduction of serum TNF-α levels as compared to LPS+saline ([8]; experiment 1, 500 μg s.c.): 76% | reduction of serum TNF-α levels as compared to LPS only ([8]; experiment 2, 500 μg s.c.): 89% | reduction of serum TNF-α levels as compared to LPS+saline ([8]; experiment 2, 500 μg s.c.): 85% | reduction of serum TNF-α levels as compared to LPS only ([8]; experiment 3, 500 μg s.c.): 85% | reduction of serum TNF-α levels as compared to LPS+saline ([8]; experiment 3, 500 μg s.c.): 84% | overall reduction of serum TNF-α levels as compared to LPS only ([8]; experiments 1-3, 500 μg s.c.): 85.4±2.98% | serum TNF-α, mean optical density (OD) in the ELISA [9]: 0.147 ± 0.004 OD | effect on serum TNF-α levels in LPS-stimulated mice [9]: complete inhibition | decrease in inhibitory effect against purified TACE, as loss in concentration of the compound [10]: no decrease

CC(C)CC(CC(=O)NO)C(=O)N[C@@H](Cc1ccc2ccccc2c1)C(=O)N[C@@H](C)C(N)=O (stereo partly drawn) [Compound A, N-{D,L-2-(hydroxyaminocarbonyl)methyl-4-methylpentanoyl}L-3-(2'naphthyl)-a lanyl-L-alanine amide, reference compound]
Serum TNF-α level [8]: 65 pg/mL | reduction of serum TNF-α levels as compared to the saline/DMSO control ([8]; 500 μg s.c., 400 μg LPS i.v., 2 hours): approximately 60% | serum TNF-α, mean optical density (OD) in the ELISA [9]: 0.299 ± 0.023 OD | effect on serum TNF-α levels in LPS-stimulated mice [9]: no effect | decrease in inhibitory effect against purified TACE, as loss in concentration of the compound [10]: 3-4 fold
